Experimental data as given in patent US6730792B2, “β3 adrenergic agonists” (Eli Lilly and Company, priority 2000, dated 2004).

target: T1, human β3 adrenergic receptor (Homo sapiens, UniProt P13945); test: whole cell receptor coupled c-AMP assay, human β3 receptor in CHO cells (EC50, Emax relative to isoproterenol); format: cell-based; details: % intrinsic activity relative to isoproterenol maximal response; average of at least 3 runs; c-AMP in transfected CHO cells
T1 construct: expressed in transfected cells; host or cells: DXB-11 Chinese hamster ovary (CHO) cell line, stably transfected (phd expression vector)
Source text: The genes encoding the human β1-adrenergic receptor (Frielle et al., Proc. Natl. Acad. Sci., 84:7920-7924, 1987), the human β2-adrenergic receptor (Kobika et al., Proc. Natl. Acad. Sci., 84:46-50, 1987, Emorine et al., Proc. Natl. Acad. Sci., 84:6995-6999, 1987) and the human β3 adrenergic receptor (Granneman et al., Molecular Pharmacology, 44(2):264-70, 1993) are individually subcloned into a phd expression vector (Grinnell et al., Bio/Technology, 5:1189-1192, 1987) and transfected into the DXB-11 Chinese hamster ovary (CHO) cell line by calcium phosphate precipitation methodology. The stably transfected cells are grown to 95% confluency in 95% Dulbecco's modified Eagles Medium (DMEM), 5% fetal bovine serum and 0.01% proline. Media is removed and the cells are washed with phosphate buffered (pH 7.4) saline (without magnesium and calcium). Cells are then lifted using an enzyme free cell dissociation solution (Specialty Media, Lavallette, N.J.) and pelleted by centrifugation.
Cells from each of the above cell lines are resuspended and added (20,000/well) to a 96-well plate. Cells are incubated at 37° C. with representative compounds of the invention for 20 minutes in buffer (Hank's balanced salt solution, 10 mM HEPES, 0.1% BSA, 1 mM L-ascorbic acid, 0.2% dimethyl sulfoxide, 1 mm 3-isobutyl-1-methylxanthine, pH 7.4). After halting the incubation with quench buffer (50 mM Na Acetate, 0.25% Triton X-100, pH 5.8), the c-AMP level is quantified by scintillation proximity assay (SPA) using a modification of the commercially available c-AMP kit (Amersham, Arlington Heights, Ill.) with rabbit anti-cAMP antibody (ICN Biomedicals, Aurora, Ohio) for the kit.
Sigmoidal dose response curves, from the whole cell receptor coupled c-AMP assay are fit to a four parameter logistic equation using non linear regression: y=(a−d)/(1+(Dose/c)^b)+d where a and d are responses at zero and maximal dose, b is the slope factor and c is the EC50 as previously described (DeLean et al., Am. J. Physiol., 235, E97-E102, 1978). EC50 is assessed as the concentration producing 50% of the maximum response to each agonist.
Isoproterenol is accepted in the art as a non-selective β3 agonist and is widely used as a comparator in evaluating the activity of compounds. See Trends in Pharm. Sci., 15:3, 1994. The % intrinsic activity (Emax) of representative compounds of the invention is assessed relative to isoproterenol by the compound's maximal response divided by the isoproterenol maximal response times 100.

T1 sequence (P13945 whole entry): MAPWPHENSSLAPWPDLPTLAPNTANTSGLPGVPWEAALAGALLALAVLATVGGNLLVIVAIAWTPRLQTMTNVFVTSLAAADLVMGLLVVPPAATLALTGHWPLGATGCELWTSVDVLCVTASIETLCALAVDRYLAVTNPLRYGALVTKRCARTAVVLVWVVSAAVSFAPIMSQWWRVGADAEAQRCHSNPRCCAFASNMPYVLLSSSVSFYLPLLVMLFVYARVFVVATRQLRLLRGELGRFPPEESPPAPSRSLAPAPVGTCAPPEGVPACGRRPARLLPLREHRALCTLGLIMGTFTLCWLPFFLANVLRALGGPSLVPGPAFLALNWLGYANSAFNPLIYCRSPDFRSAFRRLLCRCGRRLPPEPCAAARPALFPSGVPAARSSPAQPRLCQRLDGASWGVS

Emax (%) ± SEM [%]	Compound
55.8 ± 7.1	CC(C)(Cc1ccc(Oc2ccc(C#N)cn2)cc1)NC[C@H](O)COc1ccccc1-c1ccc(Cl)s1.O=C(O)C(F)(F)F [Example 406]
50.5 ± 1.9	Cc1ccc(-c2ccccc2OC[C@@H](O)CNC(C)(C)Cc2ccc(Oc3ccc(S(C)(=O)=O)cc3)cc2)s1.Cl [Example 396]
35.1 ± 7.3	CC(C)(Cc1ccc(Oc2ncccc2C#N)cc1)NC[C@H](O)COc1ccccc1-c1ccncc1 [Example 375]
68.9 ± 6.7	CC(C)(Cc1ccc(Oc2ncccc2C#N)cc1)NC[C@H](O)COc1ccccc1-c1ccco1.Cl [Example 416]
50.0 ± 3.6	CC(C)(Cc1ccc(Oc2ccc(S(C)(=O)=O)cc2)cc1)NC[C@H](O)COc1ccccc1-c1ccc(Cl)s1.Cl [Example 393]
74.4 ± 6.5	CC(C)(Cc1ccc(Oc2ncccc2C(N)=O)cc1)NC[C@H](O)COc1ccccc1-c1ccc(Cl)s1.Cl [Example 418]
75.5 ± 6.9	CC(C)(Cc1ccc(Oc2ccc(C#N)cn2)cc1)NC[C@H](O)COc1c(F)cccc1-c1ccc(Cl)s1.Cl [Example 428]

same assay, conditions: Emax ± SEM; average of at least 3 runs except as otherwise indicated; tested as the isolated form listed

Emax (%) ± SEM [%]	Compound
69.2 ± 1.2	CC(C)(Cc1ccc(Oc2ccccc2C(N)=O)cc1)NC[C@H](O)COc1ccccc1-c1ccon1.Cl [Example 301]
44.8 ± 4.9	CC(C)(Cc1ccc(Oc2ccc(S(C)(=O)=O)cc2)cc1)NC[C@H](O)COc1ccccc1-c1ccoc1.Cl [Example 304]

same assay, conditions: Emax ± standard error of the mean; average of at least 3 runs except where n = 1; compound tested in the isolated form listed

Emax (%) ± SEM	Compound
64.1 ± 3.2%	CCOC(=O)c1ccc(Oc2ccc(CC(C)(C)NC[C@H](O)COc3ccccc3-c3cccs3)cc2)c(F)c1.O=C(O)C(F)(F)F [Example 184]
63.0 ± 3.2%	CC(C)(Cc1ccc(Oc2ccccc2C#N)cc1)NC[C@H](O)COc1ccccc1-c1ccns1.O=C(O)C(F)(F)F [Example 213]
77.4 n = 1%	Cn1ccc(-c2ccccc2OC[C@@H](O)CNC(C)(C)Cc2ccc(Oc3ccc(C(N)=O)cn3)cc2)n1 [Example 67]
28.9 ± 3.4%	CC(C)(Cc1ccc(Oc2ccccc2C(N)=O)cc1)NC[C@H](O)COc1cccc(F)c1-c1cccs1.O=C(O)C(F)(F)F [Example 228]
85.4 ± 4.9%	CC(C)(Cc1ccc(Oc2cccc(Cl)c2C#N)cc1)NC[C@H](O)COc1ccccc1-c1cccs1.O=C(O)C(F)(F)F [Example 216]
59.5 ± 4.3%	CC(C)(Cc1ccc(Oc2ccc(S(N)(=O)=O)cc2F)cc1)NC[C@H](O)COc1ccccc1-c1cccs1.O=C(O)C(F)(F)F [Example 225]
33.7 n = 1%	CC(C)(Cc1ccc(Oc2ccc(C#N)cn2)cc1)NC[C@H](O)COc1ccccc1-c1ccn[nH]1 [Example 8]
48.4 ± 5.9%	CC(C)(Cc1ccc(Oc2ccc(C(N)=O)cn2)cc1)NC[C@H](O)COc1ccccc1-n1cccc1.Cl [Example 29]
28.9 n = 1%	CC(C)(Cc1ccc(Oc2ccc(C(N)=O)cn2)cc1)NC[C@H](O)COc1cccc(-c2ccno2)c1 [Example 35]
40.3 ± 6.9%	CC(C)(Cc1ccc(Oc2ccc(C(N)=O)cc2F)cc1)NC[C@H](O)COc1ccccc1-c1ccno1.O=C(O)C(F)(F)F [Example 192]
59.0 ± 10.0%	CCOC(=O)c1ccc(Oc2ccc(CC(C)(C)NC[C@H](O)COc3ccccc3-c3nccs3)cc2)c(Cl)c1.O=C(O)C(F)(F)F [Example 222]
52.4 ± 6.9%	CC(C)(Cc1ccc(Oc2ncccc2Cl)cc1)NC[C@H](O)COc1ccccc1-c1ccno1.O=C(O)C(F)(F)F [Example 180]
50.6 ± 1.8%	CC(C)(Cc1ccc(Oc2cnccn2)cc1)NC[C@H](O)COc1ccccc1-c1cscn1.Cl [Example 256]
52.1 ± 2.4%	CC(C)(Cc1ccc(Oc2cccc(Cl)c2C(N)=O)cc1)NC[C@H](O)COc1ccccc1-c1cscn1.Cl [Example 246]
76.9 ± 7.4%	CC(C)(Cc1ccc(Oc2ncc(C(F)(F)F)cc2Cl)cc1)NC[C@H](O)COc1ccccc1-c1cccs1.O=C(O)C(F)(F)F [Example 159]
